The subject of one series is TMD-8. Put plainly: In vitro tumor cell proliferation inhibition (CellTiter-Glo), TMD-8. It is filed as cell-based, human. On the procedure:
(§1) 2. Experiment on In Vitro Tumor Cell Proliferation Inhibition (1) Method • The tumor cell line (TMD-8/OCY-LY10) was suspended in RPMI1640+FBS10% and cultured in an incubator (37° C. 5% CO2). Cells were passaged periodically, and cells at logarithmic growth phase were collected for plating. • Cell staining was performed with trypan blue and viable cells were counted. • Cell concentration was adjusted to 7000 cells/well with medium. • 90 μL of cell suspension was added to a 96-well plate and cell-free culture medium was added to the blank control wells. • Cells in the 96-well plate were incubated overnight in an incubator (37° C., 5% CO2, 100% relative humidity). • Preparation of 400× compound storage plates: test compounds and reference drug were each dissolved in DMSO and 3× diluted from the highest concentration (400 μM) to the lowest concentration (0.61 μM). • Preparation of 10× compound working solutions: 78 μL of cell culture medium was added to a V-bottom 96-well plate, and 2 μL of the compound was pipetted from the 400× compound storage plate into the 96-well plate. Vehicle control wells and blank control wells were added with 2 μL of DMSO. […] Inhibition rates of compounds at different concentrations were calculated in Excel, followed by plotting the inhibition curves and calculating IC50 values with GraphPad Prism. […]
In general terms: ATP-based viability assays read luminescence as a measure of living cells.

The subject of another series is TMD-8 xenograft tumor. Put plainly: TMD-8 xenograft tumor model in CB17/SCID mice. To be noted: for anti-tumor activity (in words): TMD-8 xenograft tumor model. Type of series: in vivo. On the procedure: (§2) CB17/SCID female mice with serious immune deficiency were purchased from Beijing Vital River Laboratory Animal Technology Co., Ltd. and bred in SPF animal houses. Human TMD-8 cells (Shanghai Junrui-UFBN1682) were cultured in an RPMI 1640 culture medium containing 10% fetal bovine serum, 100 U/mL penicillin and 100 μg/mL streptomycin through monolayer culture in vitro in an incubator (37° C., 5% CO2). Routine treatment was performed twice a week for passaging. At a cell saturation of 80%-90% and a required number, the cells were harvested and counted, 0.2 mL (1×10^7) of TMD-8 cells (together with matrigel at a volume ratio of 1:1) were subcutaneously inoculated into the right back of each mouse, and the tumor size could be measured about one week after inoculation. Tumor size was measured using a vernier caliper and tumor volume was calculated using the following formula: tumor volume (length×width=)/2.

In a further series the target is BTK (C481S) (Homo sapiens (Human), UniProt Q06187, C481S). Put plainly: pBTK inhibition in HEK293 cells transfected with BTK(C481S) (ELISA). Type of series: cell-based. Particulars: 2 h incubation. On the procedure: For positive (high signal) controls, cells were treated with 0.5% DMSO alone.
BTK (C481S), sequence (Q06187 whole entry C481S): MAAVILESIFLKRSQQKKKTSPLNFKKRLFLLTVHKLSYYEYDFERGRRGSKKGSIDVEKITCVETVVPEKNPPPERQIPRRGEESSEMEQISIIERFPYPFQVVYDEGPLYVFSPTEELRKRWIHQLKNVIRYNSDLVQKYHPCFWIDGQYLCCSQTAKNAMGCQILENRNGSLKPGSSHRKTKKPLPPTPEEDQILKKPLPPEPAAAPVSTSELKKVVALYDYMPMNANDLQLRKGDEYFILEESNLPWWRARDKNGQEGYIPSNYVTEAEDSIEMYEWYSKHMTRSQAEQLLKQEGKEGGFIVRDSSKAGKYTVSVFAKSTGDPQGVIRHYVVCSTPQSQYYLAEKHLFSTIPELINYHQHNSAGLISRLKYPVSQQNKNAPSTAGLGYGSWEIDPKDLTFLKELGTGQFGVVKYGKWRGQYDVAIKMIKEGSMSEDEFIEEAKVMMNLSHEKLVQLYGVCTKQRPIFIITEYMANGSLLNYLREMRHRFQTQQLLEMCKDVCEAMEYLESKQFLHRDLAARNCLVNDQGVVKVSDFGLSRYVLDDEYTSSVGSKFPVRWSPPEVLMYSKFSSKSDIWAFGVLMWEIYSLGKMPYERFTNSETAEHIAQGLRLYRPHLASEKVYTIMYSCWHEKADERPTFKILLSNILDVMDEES
Background: In an ELISA, binding on a coated surface is turned into a signal by an enzyme label.

A further series deals with OCI-LY10 xenograft tumor. In words: OCI-LY10 xenograft tumor model in CB17/SCID mice. It is filed as in vivo. To be noted: for anti-tumor activity (in words): OCI-LY10 xenograft tumor model. On the procedure:
as §2, with “OCI-LY10” for “TMD-8”, “Junrui-UFBN0102)” for “Junrui-UFBN1682)”, “C.” for “C.,”, “volume=(length×width^2)/2.” for “volume (length×width=)/2.”

A further series concerns OCI-LY10. In words: In vitro tumor cell proliferation inhibition (CellTiter-Glo), OCI-LY10. It is filed as cell-based, human. On the procedure: as §1

The term IC50 denotes the concentration that inhibits the measured activity by half. Low readings indicate greater potency, high ones weaker potency.

With `Nc1nccn2c(C34CCC(NC(=O)CN5CCOCC5)(CC3)C4)nc(-c3ccc(C(=O)Nc4cc(C(F)(F)F)ccn4)cc3)c12` [Compound A-10-10, 4-(8-amino-3-(4-(2-morpholinoacetamido)bicyclo[2.2.1]heptan-1-yl)imidazo[1,5-a]pyrazin-1-yl)-N-(4-(trifluoromethyl)pyridin-2-yl)benzamide], the “inhibition of tumor cell proliferation (in words)” value in the series on TMD-8 and in the series on OCI-LY10 was “strong inhibition activity” throughout. Also, the “fraction of xenograft tumors disappeared” value with TMD-8 xenograft tumor (50 mg/kg bid, after 27 days of administration) is recorded as “⅝”. Moreover, the “anti-tumor activity (in words)” value with TMD-8 xenograft tumor and in the series with OCI-LY10 xenograft tumor was “extremely strong anti-tumor activity” in each case. The “tolerance of tumor-bearing mice” value with TMD-8 xenograft tumor (all dosages (25, 50 mg/kg bid)) is recorded as “good tolerance”; with OCI-LY10 xenograft tumor (all dosages (25, 50 mg/kg bid)) it was “good tolerance”. The “body weight of tumor-bearing mice” value in the series with TMD-8 xenograft tumor (all treatment groups) and in the series on OCI-LY10 xenograft tumor (all treatment groups) was “no significant weight loss” each time. In addition, on BTK (C481S), the midpoint of inhibition, the IC50, lay at 63 nM. Also, the “disappearance of xenograft tumors” value in the series with OCI-LY10 xenograft tumor (25 mg/kg bid, after 28 days of administration) is given as “disappeared completely”; with OCI-LY10 xenograft tumor (50 mg/kg bid, after 21 days of administration) it was “completely disappeared”.

For `C=CC(=O)N1CCC[C@@H](n2nc(-c3ccc(Oc4ccccc4)cc3)c3c(N)ncnc32)C1` [Ibrutinib, reference compound], the “inhibition of tumor cell proliferation (in words)” value in the series on TMD-8 and in the series with OCI-LY10 was “strong inhibition activity” in each case. The “anti-tumor activity (in words)” value with TMD-8 xenograft tumor and in the series with OCI-LY10 xenograft tumor was “extremely strong anti-tumor activity” throughout.

For the origin of these results see patent US12291534B2, “Aminonorbornane derivative and manufacture method therefor and use thereof” (TRANSTHERA SCIENCES (NANJING), INC., priority 2018, dated 2025).
